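Cultured in 96-well plates, cells were exposed to test compound for 48 hours across five concentrations. Abbreviation: GI50, concentration required for 50% inhibition of growth. The concentration for full growth arrest is given as TGI.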
Experiments:
Assay in all cases: NCI-60 cell line screen, 48 h
[1] = tested on: ACHN renal
[2] = tested on: CAKI-1 renal
[3] = tested on: DLD-1 colon
[4] = tested on: EKVX NSCLC
[5] = tested on: LOX IMVI melanoma
[6] = tested on: M14 melanoma
[7] = tested on: M19-MEL melanoma
[8] = tested on: MOLT-4 leukemia
[9] = tested on: OVCAR-5 ovarian
[10] = tested on: UO-31 renal

SMILES | TGI [1] [µM] | TGI [2] [µM] | TGI [3] [µM] | TGI [4] [µM] | TGI [5] [µM] | TGI [6] [µM] | TGI [7] [µM] | TGI [8] [µM] | TGI [9] [µM] | TGI [10] [µM] | GI50 [1] [µM] | GI50 [2] [µM] | GI50 [4] [µM] | GI50 [6] [µM] | GI50 [9] [µM] | GI50 [10] [µM]
O=C(NC(=Nc1ccccc1)SCSC(=Nc1ccccc1)NC(=O)c1ccco1)c1ccco1 | > 100 | > 100 | > 100 | > 100 | > 100 | > 100 | > 100 | > 100 | > 100 | > 100 |  |  |  |  |  | 
O=C(Cc1ccccc1[N+](=O)[O-])C(CO)c1ccccc1[N+](=O)[O-] (stereo not given) | > 100 | > 100 | > 100 | > 100 | > 100 | > 100 | > 100 | > 100 | > 100 | > 100 |  |  |  |  |  | 
N#CCCN(CCC#N)c1ccc(/C=C(/NC(=O)c2cc([N+](=O)[O-])ccc2Cl)C(=O)NN)cc1 | > 100 | > 100 | > 100 | > 100 | > 100 | > 100 | > 100 | > 100 | > 100 | > 100 |  |  |  |  |  | 
C/C(=N\NC(=S)N1CCN(c2ccccn2)CC1)c1ccccn1 | 8.52 | 15.5 | 15.2 |  | 14.4 | 8.06 | 2.94 | 2.66 | 13.4 | 6.8 | 0.00217 | 0.301 | 0.000138 | 0.0852 | 0.159 | 0.141
CC1(C)NC(=O)N(CCCCCCN2C(=O)NC(C)(C)C2=O)C1=O | > 100 | > 100 | > 100 | > 100 | > 100 | > 100 | > 100 | > 100 | > 100 | > 100 |  |  |  |  |  | 

— PubChem BioAssay (NCI)
